# According to patent publication US10632147B2, “Methods and compositions for treating inflammatory disorders” (priority 2007, dated 2020):
# Conditions: in vivo
compound,measurement,value
NCc1ccc(S(N)(=O)=O)cc1 [Sulfamylon],safety profile (adverse effects),absence of adverse effects
